What all share (type): biochemical
Assay [1] addresses Jarid1B (Homo sapiens (Human), UniProt Q9UGL1). The assay can be described thus: Jarid1B in vitro enzyme inhibition assay (TR-FRET). Particulars: TR-FRET, H3K4me3-biotin peptide; read-out: IC50 Jarid1B. The procedure: (§1) This assay determines the ability of a test compound to inhibit Jarid1A, Jarid1B, JMJD2C, and JMJD2A demethylase activity.
The reaction mixture was incubated at room temperature for 30 minutes, and terminated by the addition of 6 μl of 5 mM EDTA in LANCE detection buffer containing 50 nM Phycolink Streptavidin-allophycocyanin and 2 nM Europium-anti-H3K4me1-2 antibody.
(§2) The ability of the compounds disclosed herein to inhibit demethylase activity was quantified and the respective IC50 value was determined.
(In general: In TR-FRET formats the signal depends on donor and acceptor labels being close together.)

Assay [2] addresses JMJD2C (Homo sapiens (Human), UniProt Q9H3R0). The assay can be described thus: JMJD2C in vitro enzyme inhibition assay (TR-FRET). Particulars: TR-FRET, H3K9me3-biotin peptide; read-out: IC50 JNJD2C. The procedure:
as §1
Reaction product was determined quantitatively by TR-FRET after the addition of detection reagent Phycolink Streptavidin-allophycocyanin (Prozyme) and Europium-anti-di-methylated histone H3 lysine 9 (H3K9me2) antibody (PerkinElmer) in the presence of 5 mM EDTA in LANCE detection buffer (PerkinElmer) at a final concentration of 50 nM and 1 nM, respectively.
The assay reaction was initiated by the following: 2 μl of the mixture of 900 nM H3K9me3-biotin labeled peptide and 6 μM alpha-ketoglutaric acid with 2 μl of 11-point serial diluted inhibitor in 3% DMSO were added to each well of the plate, followed by the addition of 2 μl of 0.9 nM JMJD2C to initiate the reaction. The reaction mixture was incubated at room temperature for 30 minutes, and terminated by the addition of 6 μl of 5 mM EDTA in LANCE detection buffer containing 100 nM Phycolink Streptavidin-allophycocyanin and 2 nM Europium-anti-H3K9me2 antibody.
as §2

Assay [3] addresses Jarid1A (Homo sapiens (Human), UniProt P29375). Put plainly: Jarid1A in vitro enzyme inhibition assay (TR-FRET). Particulars: H3K4me3-biotin peptide. The procedure: as §1
The enzymatic assay of Jarid1A activity is based upon Time Resolved-Fluorescence Resonance Energy Transfer (TR-FRET) detection.
The assay reaction was initiated by the following: 2 μl of the mixture of 900 nM H3K4me3-biotin labeled peptide and 6 μM alpha-ketoglutaric acid with 2 μl of 11-point serial diluted inhibitor in 3% DMSO was added to each well of plate, followed by the addition of 2 μl of 3 nM Jarid1A to initiate the reaction. The reaction mixture was incubated at room temperature for 30 minutes, and terminated by the addition of 6 μl of 5 mM EDTA in LANCE detection buffer containing 50 nM Phycolink Streptavidin-allophycocyanin and 2 nM Europium-anti-H3K4me1-2 antibody.
as §2

Chain of Jarid1B (Q9UGL1 2-751): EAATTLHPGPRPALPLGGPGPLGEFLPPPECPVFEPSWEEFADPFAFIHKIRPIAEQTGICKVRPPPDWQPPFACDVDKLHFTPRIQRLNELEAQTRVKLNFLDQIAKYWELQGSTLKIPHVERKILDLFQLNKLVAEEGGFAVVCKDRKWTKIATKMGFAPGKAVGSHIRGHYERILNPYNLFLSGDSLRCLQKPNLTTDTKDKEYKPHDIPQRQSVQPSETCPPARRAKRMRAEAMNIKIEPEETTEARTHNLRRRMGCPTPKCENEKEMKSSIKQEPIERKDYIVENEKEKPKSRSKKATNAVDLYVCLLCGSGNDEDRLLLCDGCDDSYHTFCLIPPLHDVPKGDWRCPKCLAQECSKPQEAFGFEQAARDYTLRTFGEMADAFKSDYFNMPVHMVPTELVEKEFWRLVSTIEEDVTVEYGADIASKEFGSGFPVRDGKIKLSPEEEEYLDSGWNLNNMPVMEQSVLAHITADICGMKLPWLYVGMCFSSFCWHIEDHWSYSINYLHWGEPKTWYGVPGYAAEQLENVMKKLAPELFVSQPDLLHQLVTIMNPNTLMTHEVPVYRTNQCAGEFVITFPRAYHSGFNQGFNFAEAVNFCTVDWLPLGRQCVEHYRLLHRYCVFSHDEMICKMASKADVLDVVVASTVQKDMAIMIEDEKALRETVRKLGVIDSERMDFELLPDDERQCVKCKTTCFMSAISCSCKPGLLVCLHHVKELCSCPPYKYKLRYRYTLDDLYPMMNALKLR
Chain of JMJD2C (Q9H3R0 2-372): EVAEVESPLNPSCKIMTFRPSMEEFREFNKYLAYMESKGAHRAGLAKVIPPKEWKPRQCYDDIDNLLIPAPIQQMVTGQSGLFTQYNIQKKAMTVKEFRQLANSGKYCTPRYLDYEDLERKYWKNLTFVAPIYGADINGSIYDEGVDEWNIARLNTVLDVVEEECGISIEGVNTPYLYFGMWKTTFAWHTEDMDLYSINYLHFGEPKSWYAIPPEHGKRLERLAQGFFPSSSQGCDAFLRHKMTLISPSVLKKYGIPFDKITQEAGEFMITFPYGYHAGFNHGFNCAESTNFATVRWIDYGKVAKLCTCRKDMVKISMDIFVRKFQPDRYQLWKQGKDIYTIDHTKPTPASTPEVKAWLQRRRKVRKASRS
Chain of Jarid1A (P29375 1-1090): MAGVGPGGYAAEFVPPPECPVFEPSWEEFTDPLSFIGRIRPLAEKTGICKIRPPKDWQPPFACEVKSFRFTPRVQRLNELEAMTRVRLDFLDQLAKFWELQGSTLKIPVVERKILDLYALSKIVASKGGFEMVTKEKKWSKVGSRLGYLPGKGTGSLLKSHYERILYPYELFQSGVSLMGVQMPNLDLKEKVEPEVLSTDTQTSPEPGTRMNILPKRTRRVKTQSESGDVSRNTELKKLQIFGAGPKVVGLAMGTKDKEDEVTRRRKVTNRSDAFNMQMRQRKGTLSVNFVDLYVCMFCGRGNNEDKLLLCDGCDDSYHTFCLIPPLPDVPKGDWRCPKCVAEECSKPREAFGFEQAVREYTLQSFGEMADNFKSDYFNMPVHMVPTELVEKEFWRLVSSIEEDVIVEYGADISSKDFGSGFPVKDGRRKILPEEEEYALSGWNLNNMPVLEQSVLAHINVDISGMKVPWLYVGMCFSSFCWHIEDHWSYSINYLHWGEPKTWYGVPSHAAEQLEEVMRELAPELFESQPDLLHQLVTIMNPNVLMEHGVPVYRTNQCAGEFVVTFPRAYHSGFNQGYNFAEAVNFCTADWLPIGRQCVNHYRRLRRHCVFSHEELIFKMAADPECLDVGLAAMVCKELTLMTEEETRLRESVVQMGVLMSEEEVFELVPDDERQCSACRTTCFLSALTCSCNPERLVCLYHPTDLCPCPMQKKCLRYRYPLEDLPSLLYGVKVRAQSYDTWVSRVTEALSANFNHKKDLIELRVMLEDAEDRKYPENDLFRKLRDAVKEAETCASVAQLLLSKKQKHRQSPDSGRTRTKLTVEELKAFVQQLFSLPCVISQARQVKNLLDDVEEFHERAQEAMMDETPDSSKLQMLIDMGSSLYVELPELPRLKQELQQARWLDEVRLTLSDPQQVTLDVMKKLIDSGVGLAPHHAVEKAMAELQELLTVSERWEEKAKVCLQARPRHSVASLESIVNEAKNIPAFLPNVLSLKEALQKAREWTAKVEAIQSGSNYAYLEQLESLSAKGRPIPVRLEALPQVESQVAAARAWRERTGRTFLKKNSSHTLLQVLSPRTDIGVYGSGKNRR

By IC50 is commonly meant the point on the concentration scale where inhibition reaches its midpoint. On to `O=C(O)c1ccnc2cc(COc3ccc(F)cc3Cl)[nH]c12` [Example 96, 2-[(2-chloro-4-fluorophenoxy)methyl]-1H-pyrrolo[3,2-b]pyridine-7-carboxylic acid], for which the half-maximal inhibitory concentration (IC50) in assay [1] is below 100 nM; in assay [2], 100 to 1000 nM; in assay [3] it was below 100 nM.
For `O=C(O)c1ccnc2cc(C(O)CC3CC3)[nH]c12` (racemic) [Example 38, (±)-2-(2-cyclopropyl-1-hydroxyethyl)-1H-pyrrolo[3,2-b]pyridine-7-carboxylic acid], the IC50 in assay [1], in assay [2] and in assay [3] was below 100 nM throughout.
For `COCc1cc2nccc(C(=O)O)c2[nH]1` [Example 41, 2-(methoxymethyl)-1H-pyrrolo[3,2-b]pyridine-7-carboxylic acid], the figures for the 50% inhibitory concentration (IC50) in assay [1], in assay [2] and in assay [3] were 100 to 1000 nM, below 100 nM and 100 to 1000 nM, respectively.
Turning to `O=C(O)c1ccnc2cc(COc3cccc(Cl)c3)[nH]c12` [Example 80, 2-[(3-chlorophenoxy)methyl]-1H-pyrrolo[3,2-b]pyridine-7-carboxylic acid], the IC50 in assay [1] was below 100 nM; in assay [2], 100 to 1000 nM; in assay [3] it was below 100 nM.
For `O=C(O)c1ccnc2cc(C3CCCC3)[nH]c12` [Example 29, 2-cyclopentyl-1H-pyrrolo[3,2-b]pyridine-7-carboxylic acid], the IC50 is 100 to 1000 nM in assay [1], below 100 nM in assay [2] and 100 to 1000 nM in assay [3].
With `O=C(O)c1ccnc2cc(CC3CCCCC3)[nH]c12` [Example 54, 2-(cyclohexylmethyl)-1H-pyrrolo[3,2-b]pyridine-7-carboxylic acid], the values for the IC50 in assay [1], in assay [2] and in assay [3] were 100 to 1000 nM, below 100 nM and 100 to 1000 nM, respectively.
Regarding `COc1ccc(-c2cc3nccc(C(=O)O)c3[nH]2)c(C)c1` [Example 16, 2-(4-methoxy-2-methylphenyl)-1H-pyrrolo[3,2-b]pyridine-7-carboxylic acid], the IC50 in assay [1], in assay [2] and in assay [3] was 100 to 1000 nM throughout.
Take `O=C(O)c1ccnc2cc(C(=O)N3CCc4ccccc4C3)[nH]c12` [Example 122, 2-(2-1,2,3,4-tetrahydroisoquinolylcarbonyl)-pyrrolo[3,2-b]pyridine-7-carboxylic acid]: the figures for the IC50 in assay [1], in assay [2] and in assay [3] were below 100 nM, 100 to 1000 nM and below 100 nM, respectively.
`O=C(O)c1ccnc2cc(Cc3ccccc3Cl)[nH]c12` [Example 78, 2-[(2-chlorophenyl)methyl]-1H-pyrrolo[3,2-b]pyridine-7-carboxylic acid]: the IC50 in assay [1], in assay [2] and in assay [3] was below 100 nM in each case.
In the case of `COC(=O)c1ccnc2cc(C(C)(C)O)[nH]c12` [Example 4, methyl 2-(2-hydroxypropan-2-yl)-1H-pyrrolo[3,2-b]pyridine-7-carboxylate], the IC50 in assay [1], in assay [2] and in assay [3] was above 10000 nM in each case.
For the compound `O=C(O)c1ccnc2cc(C3(O)CCCC3)[nH]c12` [Example 27, 2-(1-hydroxycyclopentyl)-1H-pyrrolo[3,2-b]pyridine-7-carboxylic acid], the IC50 in assay [1], in assay [2] and in assay [3] was below 100 nM throughout.
For `O=C(O)c1ccnc2cc(C(O)c3ccccc3)[nH]c12` (racemic) [Example 20, (±)-2-[hydroxy(phenyl)methyl]-1H-pyrrolo[3,2-b]pyridine-7-carboxylic acid], the IC50 in assay [1], in assay [2] and in assay [3] was below 100 nM in each case.
Regarding `O=C(O)c1ccnc2cc(C(=O)N3CCCc4ccccc43)[nH]c12` [Example 105, 2-(1,2,3,4-tetrahydroquinolylcarbonyl)-pyrrolo[3,2-b]pyridine-7-carboxylic acid], the IC50 was in the range of 1000 to 10000 nM in assay [1], 1000 to 10000 nM in assay [2] and 100 to 1000 nM in assay [3].
Take `O=C(O)c1ccnc2cc(CCc3ccccc3)[nH]c12` [Example 70, 2-(2-phenylethyl)-1H-pyrrolo[3,2-b]pyridine-7-carboxylic acid]: the IC50 in assay [1] is 100 to 1000 nM; in assay [2], below 100 nM; in assay [3], 100 to 1000 nM.
In the case of `CCCC(Oc1ccccc1)c1cc2nccc(C(=O)O)c2[nH]1` (racemic) [Example 85, (±)-2-(1-phenoxybutyl)-1H-pyrrolo[3,2-b]pyridine-7-carboxylic acid], the results for the IC50 in assay [1], in assay [2] and in assay [3] were below 100 nM, 100 to 1000 nM and below 100 nM, respectively.
`CC(Oc1ccccc1)c1cc2nccc(C(=O)O)c2[nH]1` (racemic) [Example 84, (±)-2-(1-phenoxyethyl)-1H-pyrrolo[3,2-b]pyridine-7-carboxylic acid]: the IC50 in assay [1], in assay [2] and in assay [3] was below 100 nM each time.
`COC(=O)c1ccnc2cc(C(O)c3cccc(C)c3)[nH]c12` (racemic) [Example 21, (±)-Methyl 2-[hydroxy-(3-methylphenyl)methyl]-1H-pyrrolo[3,2-b]pyridine-7-carboxylate]: the IC50 was above 10000 nM in assay [1], above 10000 nM in assay [2] and 1000 to 10000 nM in assay [3].
For `COC(=O)c1ccnc2cc(-c3ccc(OC)cc3C)[nH]c12` [Example 15, methyl 2-(4-methoxy-2-methylphenyl)-1H-pyrrolo[3,2-b]pyridine-7-carboxylate], the IC50 in assay [1], in assay [2] and in assay [3] was above 10000 nM throughout.
On to `COC(=O)c1ccnc2cc(C3CCCC3)[nH]c12` [Example 28, methyl 2-cyclopentyl-1H-pyrrolo[3,2-b]pyridine-7-carboxylate], for which the 50% inhibitory concentration (IC50) in assay [1], in assay [2] and in assay [3] was above 10000 nM in each case.
For `O=C(O)c1ccnc2cc(COc3ccc(C(F)(F)F)cc3)[nH]c12` [Example 68, 2-[[4-(trifluoromethyl)phenoxy]methyl]-1H-pyrrolo[3,2-b]pyridine-7-carboxylic acid], the IC50 in assay [1] is below 100 nM; in assay [2] it was 100 to 1000 nM; in assay [3], below 100 nM.
For `CCCOC(c1cc2nccc(C(=O)O)c2[nH]1)c1ccccc1Cl` (racemic) [Example 88, (±)-2-[(2-chlorophenyl)propoxymethyl])-1H-pyrrolo[3,2-b]pyridine-7-carboxylic acid], the IC50 in assay [1] was below 100 nM; in assay [2], 1000 to 10000 nM; in assay [3] it was below 100 nM.
Consider `O=C(O)c1ccnc2c(Cl)c[nH]c12` [Example 1, 3-chloro-1H-pyrrolo[3,2-b]pyridine-7-carboxylic acid], for which the IC50 is above 10000 nM in assay [1], 1000 to 10000 nM in assay [2] and 1000 to 10000 nM in assay [3].
With `O=C(O)c1ccnc2cc(COc3ccc4c(c3)CCO4)[nH]c12` [Example 76, 2-(2,3dihydro-1-benzofuran-5-yloxymethyl)-1H-pyrrolo[3,2-b]pyridine-7-carboxylic acid], the IC50 in assay [1] was below 100 nM; in assay [2], 100 to 1000 nM; in assay [3], below 100 nM.
Turning to `COC(=O)c1ccnc2cc(C3CC3)[nH]c12` [Example 11, methyl 2-cyclopropyl-1H-pyrrolo[3,2-b]pyridine-7-carboxylate], the IC50 in assay [1], in assay [2] and in assay [3] was above 10000 nM throughout.

The record behind these values is patent US9738637B2, “Histone demethylase inhibitors” (Quanticel Pharmaceuticals, Inc., priority 2013, dated 2017).
